Biological target: Neuronal acetylcholine receptor subunit alpha-4 (Rattus norvegicus, UniProt P09483)
Sequence (P09483 whole entry): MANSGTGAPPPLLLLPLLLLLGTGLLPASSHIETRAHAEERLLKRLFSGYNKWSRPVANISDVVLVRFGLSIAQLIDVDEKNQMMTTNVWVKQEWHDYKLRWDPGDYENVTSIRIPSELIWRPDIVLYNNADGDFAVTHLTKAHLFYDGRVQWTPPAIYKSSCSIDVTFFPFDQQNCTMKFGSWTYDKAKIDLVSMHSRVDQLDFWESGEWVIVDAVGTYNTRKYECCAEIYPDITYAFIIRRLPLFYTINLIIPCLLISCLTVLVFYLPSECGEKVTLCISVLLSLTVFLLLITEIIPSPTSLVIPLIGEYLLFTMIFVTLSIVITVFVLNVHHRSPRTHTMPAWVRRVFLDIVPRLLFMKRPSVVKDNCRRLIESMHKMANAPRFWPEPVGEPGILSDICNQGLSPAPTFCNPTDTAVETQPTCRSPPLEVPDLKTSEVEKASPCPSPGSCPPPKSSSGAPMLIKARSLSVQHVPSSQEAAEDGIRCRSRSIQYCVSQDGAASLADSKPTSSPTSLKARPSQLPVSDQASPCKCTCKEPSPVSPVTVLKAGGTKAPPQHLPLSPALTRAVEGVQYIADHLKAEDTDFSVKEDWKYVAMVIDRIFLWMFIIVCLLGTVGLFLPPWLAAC

For `c1cnc2[nH]c(C3CCCNC3)cc2c1` (stereo unspecified) [CAS_24759729], the Ki was > 10 µM.

— BindingDB's records for doi:10.1016/j.bmcl.2007.10.101 (Solvay Pharmaceuticals, 2008)
